“And” between values parts separate entries of the source, which are not always exact repeats. Equal entries are not always repeated.
Experiments:
[1] = target: T1, hERG (Homo sapiens, UniProt Q12809); experiment: hERG [3H]-astemizole radioligand binding assay; conditions: HEK293 cell membranes, preliminary experiments
T1 construct: expressed in transfected cells
Protocol: [^3H]-astemizole (PerkinElmer ITALIA Spa, Milan, Italy) radioligand binding assays were performed in HEK293 cells membranes stably transfected with the hERG (U04270); non-specific binding was evaluated in the presence of an excess of 10 µM cold astemizole. Experiments were performed at 22 °C for 60 min in triplicate and compounds tested in a range from 0.03 µM to 30 µM. Two separate experiments were performed and data analyzed with non-linear fitting using a four-parameter logistic.

[2] = system: P. berghei ANKA; experiment: Standard four-day suppressive test, P. berghei; assay type: in vivo; conditions: CD1 mice, oral, once a day for four days, parasitaemia on day 4
Protocol: Groups of five CD1 mice were inoculated i.v. with 4 × 10^6 infected erythrocytes/mice. The compound, dissolved in standard suspending formula (SSV) (0.5% sodium carboxymethylcellulose, 0.5% benzyl alcohol, 0.4% Tween 80, 0.9% NaCl), was administered orally, once a day for a period of four days, starting two hours post-infection. […] Parasitaemia was determined by microscopic examination of Giemsa-stained blood films taken on day four, processed using MICROSOFT® EXCEL spreadsheets (Microsoft Corp., Redmond, WA, USA), and expressed as percentages of inhibition from the arithmetic mean parasitaemias of each group in relation to the untreated group. ED50 and ED90 values were calculated by GraphPad Prism 6 (GraphPad Software Inc, La Jolla, CA, USA).

[3] = system: P. vivax field isolates; experiment: In vitro assay against P. vivax field isolates; assay type: cell-based; conditions: for IC50: 10 field isolates from the Thai–Burmese border, mean, read-out: P. vivax IC50, field isolates
Description: Ten P. vivax isolates were collected from June to July 2010 from malaria patients attending the Shoklo Malaria Research Unit (SMRU) clinics, Mae Sot region of the Tak Province in north-western Thailand under the ethical guidelines in the approved protocol OXTREC 027-05 (Centre for Clinical Vaccinology and Tropical Medicine, University of Oxford, Oxford, UK). These samples were collected from patients with no prior antimalarial therapy and with microscopically confirmed P. vivax. After written consent, blood samples were collected by venepuncture in 5 mL volume lithium heparinized tubes, which were then transported to the laboratory at SMRU within 5 h of collection. The ten isolates were chosen for testing because the majority (>80%) of the parasites were at the mid trophozoite stage (around 20 h post invasion) and no schizonts were detected.

[4] = system: P. falciparum D10 (CQ-S); design: method as in PMID 22901673; conditions: 72 h incubation, pLDH method, mean of 3 experiments; data already published; cited from earlier work
[5] = system: P. falciparum W-2 (CQ-R); design: method as in PMID 22901673; conditions: 72 h incubation, pLDH method, mean of 3 experiments; data already published; cited from earlier work
[6] = Pharmacokinetics in CD-1 mice after oral administration; assay type: in vivo, mouse
Protocol: Samples from the pharmacokinetic studies were analyzed under the following conditions: UPLC interfaced with a Premiere XE triple Quadrupole, Waters. A gradient from 2 to 100% (Water, MeOH, 5 mM Ammonium Acetate) over 1.3 min was used in Acquity HSS T3 (dimensions 2.1 by 50 mm, 1.8 µm column, 40 °C temperature, flow rate 0.5 mL/min). Detection was performed in MRM (ESI positive, Q1/Q3 330.16/152.00, Cone Voltage 45 V; Extractor 5 V; Capillary 3.4 kV). The limit of detection was 1 ng/mL. Pharmacokinetic parameters were determined by Non-Compartmental Analysis, using the linear trapezoidal rule and uniform weight.
Pharmacokinetic data were collected in mice by testing the racemate and the enantiomers at the same single dose, and vehicle-utilized for in vivo studies (see composition in paragraph 4.4). Briefly, male CD-1 mice (Charles River Laboratories) weighing 18–22 g received single dose (10 mg/kg) oral administrations of the AM1 racemate and single enantiomers, each dissolved in SSV. For each experiment, twenty-four mice/dose and three mice/time-point were used. Blood samples were collected at eight selected time-points (15, 30 and 60 min; 2, 4, 6, 8 and 24 h) under ethyl ether anaesthesia. The heparinized tubes containing blood samples were immediately placed on ice and centrifuged, and the supernatant collected and frozen at −80 °C prior to analysis. Pharmacokinetic plasma samples (spiked with internal standard) were filtered (Sirocco filter plate, Waters) under vacuum, and 5 µL analysed by LC-MS/MS.

[7] = target: CYP2C9 (Homo sapiens, UniProt P11712); experiment: in vitro
[8] = target: CYP3A4 (Homo sapiens, UniProt P08684); experiment: in vitro
[9] = target: CYP2D6 (Homo sapiens, UniProt P10635); experiment: in vitro
[10] = target: CYP2C19 (Homo sapiens, UniProt P33261); experiment: in vitro
[11] = target: T2, CYP1A2 (Homo sapiens, UniProt P05177); experiment: in vitro
T2 sequence (P05177 1-516): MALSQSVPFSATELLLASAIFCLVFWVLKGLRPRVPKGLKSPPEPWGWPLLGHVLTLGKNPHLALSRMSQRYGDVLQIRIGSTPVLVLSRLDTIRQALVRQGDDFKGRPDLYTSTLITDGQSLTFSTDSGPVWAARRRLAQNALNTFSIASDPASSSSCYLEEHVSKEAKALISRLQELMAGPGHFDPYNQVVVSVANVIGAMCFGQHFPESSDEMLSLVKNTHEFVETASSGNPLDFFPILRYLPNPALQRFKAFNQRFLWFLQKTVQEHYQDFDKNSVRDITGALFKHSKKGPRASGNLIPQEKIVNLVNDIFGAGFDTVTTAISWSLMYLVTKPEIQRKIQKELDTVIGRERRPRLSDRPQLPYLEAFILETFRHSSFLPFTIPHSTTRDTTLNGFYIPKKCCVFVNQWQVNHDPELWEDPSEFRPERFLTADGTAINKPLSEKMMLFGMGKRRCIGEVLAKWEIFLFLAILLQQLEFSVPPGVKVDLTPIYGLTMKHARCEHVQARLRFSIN

[12] = system: chloroquine-sensitive and resistant P. falciparum strains; experiment: In vitro antimalarial activity, range over the strain panel; assay type: cell-based; conditions: D10, W-2, FCR1, FCR3, TM91C235; range over strains and forms; read-out: IC50 range against CQ-S and CQ-R P. falciparum strains
[13] = design: method as in PMID 19651905; conditions: pH 7.4; cited from earlier work
[14] = CD-1 mice, 10 mg/kg oral, single dose in SSV, plasma
[15] = male, CD-1, mouse, in vivo, po, 10 mg/kg

Sequence of CYP2C9 (P11712 whole entry): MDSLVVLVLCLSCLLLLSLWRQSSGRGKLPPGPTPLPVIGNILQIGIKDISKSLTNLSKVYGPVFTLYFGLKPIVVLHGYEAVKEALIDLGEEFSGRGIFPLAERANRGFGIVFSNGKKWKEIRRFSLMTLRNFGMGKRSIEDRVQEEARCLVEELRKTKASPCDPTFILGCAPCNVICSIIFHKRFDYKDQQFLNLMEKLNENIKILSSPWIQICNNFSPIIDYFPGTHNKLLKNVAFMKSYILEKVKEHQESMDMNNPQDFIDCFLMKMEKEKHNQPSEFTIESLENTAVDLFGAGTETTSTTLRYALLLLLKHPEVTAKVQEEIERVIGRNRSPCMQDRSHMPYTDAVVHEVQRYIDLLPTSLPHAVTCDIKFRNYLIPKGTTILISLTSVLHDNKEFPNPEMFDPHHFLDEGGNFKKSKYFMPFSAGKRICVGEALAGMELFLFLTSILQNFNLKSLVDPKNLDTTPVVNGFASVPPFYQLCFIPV
T1 sequence (Q12809 whole entry): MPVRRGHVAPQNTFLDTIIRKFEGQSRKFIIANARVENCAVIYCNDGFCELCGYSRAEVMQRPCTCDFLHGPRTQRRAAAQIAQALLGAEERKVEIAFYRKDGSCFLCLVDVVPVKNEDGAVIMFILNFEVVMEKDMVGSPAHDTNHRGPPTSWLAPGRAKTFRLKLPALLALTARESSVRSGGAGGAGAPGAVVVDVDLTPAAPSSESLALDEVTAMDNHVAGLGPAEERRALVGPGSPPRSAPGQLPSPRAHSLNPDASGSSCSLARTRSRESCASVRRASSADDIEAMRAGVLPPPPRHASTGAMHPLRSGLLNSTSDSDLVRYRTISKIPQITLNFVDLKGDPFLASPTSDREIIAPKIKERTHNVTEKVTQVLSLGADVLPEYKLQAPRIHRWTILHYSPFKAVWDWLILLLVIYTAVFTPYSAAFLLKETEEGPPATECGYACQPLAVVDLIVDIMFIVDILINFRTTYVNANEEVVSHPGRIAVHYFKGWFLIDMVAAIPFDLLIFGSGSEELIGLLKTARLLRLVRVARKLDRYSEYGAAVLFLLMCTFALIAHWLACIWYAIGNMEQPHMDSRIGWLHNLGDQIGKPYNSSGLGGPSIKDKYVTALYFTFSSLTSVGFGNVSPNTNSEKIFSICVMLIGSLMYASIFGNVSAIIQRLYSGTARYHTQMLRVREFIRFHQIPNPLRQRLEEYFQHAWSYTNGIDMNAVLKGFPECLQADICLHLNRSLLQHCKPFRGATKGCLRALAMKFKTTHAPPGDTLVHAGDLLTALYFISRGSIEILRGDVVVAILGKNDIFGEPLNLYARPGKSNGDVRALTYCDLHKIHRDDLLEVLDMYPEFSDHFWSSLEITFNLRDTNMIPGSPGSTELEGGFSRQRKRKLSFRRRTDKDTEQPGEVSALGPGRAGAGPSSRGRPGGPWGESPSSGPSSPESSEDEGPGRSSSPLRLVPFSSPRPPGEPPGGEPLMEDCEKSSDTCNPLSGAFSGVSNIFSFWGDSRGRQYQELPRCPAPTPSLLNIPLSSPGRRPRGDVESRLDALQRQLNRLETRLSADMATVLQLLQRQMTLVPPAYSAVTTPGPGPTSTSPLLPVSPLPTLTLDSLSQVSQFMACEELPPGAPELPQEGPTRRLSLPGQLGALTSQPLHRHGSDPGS
Sequence of CYP3A4 (P08684 whole entry): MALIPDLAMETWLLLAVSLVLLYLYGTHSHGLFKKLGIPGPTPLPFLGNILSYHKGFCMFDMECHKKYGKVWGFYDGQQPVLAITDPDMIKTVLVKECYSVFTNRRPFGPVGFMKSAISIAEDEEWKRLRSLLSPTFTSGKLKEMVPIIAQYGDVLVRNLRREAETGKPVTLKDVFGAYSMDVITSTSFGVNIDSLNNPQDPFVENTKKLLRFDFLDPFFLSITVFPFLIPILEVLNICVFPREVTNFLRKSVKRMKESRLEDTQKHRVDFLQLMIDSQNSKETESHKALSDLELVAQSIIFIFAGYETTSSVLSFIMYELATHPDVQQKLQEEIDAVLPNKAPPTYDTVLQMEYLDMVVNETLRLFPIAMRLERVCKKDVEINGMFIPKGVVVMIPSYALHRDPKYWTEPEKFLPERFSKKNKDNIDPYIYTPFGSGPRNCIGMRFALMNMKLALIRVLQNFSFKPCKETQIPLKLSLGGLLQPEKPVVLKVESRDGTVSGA
Sequence of CYP2D6 (P10635 whole entry): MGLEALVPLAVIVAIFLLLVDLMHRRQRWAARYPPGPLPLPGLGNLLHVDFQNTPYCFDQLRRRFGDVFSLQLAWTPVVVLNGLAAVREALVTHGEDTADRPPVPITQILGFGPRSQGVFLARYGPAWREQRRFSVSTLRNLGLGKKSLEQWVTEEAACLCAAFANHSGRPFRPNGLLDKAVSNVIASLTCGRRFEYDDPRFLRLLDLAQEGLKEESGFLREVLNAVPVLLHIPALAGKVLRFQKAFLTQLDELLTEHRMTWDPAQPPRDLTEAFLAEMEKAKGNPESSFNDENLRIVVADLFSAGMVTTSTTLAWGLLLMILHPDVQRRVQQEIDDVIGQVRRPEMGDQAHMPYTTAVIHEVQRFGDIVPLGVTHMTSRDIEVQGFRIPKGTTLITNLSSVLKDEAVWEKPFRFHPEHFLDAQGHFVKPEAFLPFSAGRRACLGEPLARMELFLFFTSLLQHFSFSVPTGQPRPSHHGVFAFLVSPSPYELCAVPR
Sequence of CYP2C19 (P33261 whole entry): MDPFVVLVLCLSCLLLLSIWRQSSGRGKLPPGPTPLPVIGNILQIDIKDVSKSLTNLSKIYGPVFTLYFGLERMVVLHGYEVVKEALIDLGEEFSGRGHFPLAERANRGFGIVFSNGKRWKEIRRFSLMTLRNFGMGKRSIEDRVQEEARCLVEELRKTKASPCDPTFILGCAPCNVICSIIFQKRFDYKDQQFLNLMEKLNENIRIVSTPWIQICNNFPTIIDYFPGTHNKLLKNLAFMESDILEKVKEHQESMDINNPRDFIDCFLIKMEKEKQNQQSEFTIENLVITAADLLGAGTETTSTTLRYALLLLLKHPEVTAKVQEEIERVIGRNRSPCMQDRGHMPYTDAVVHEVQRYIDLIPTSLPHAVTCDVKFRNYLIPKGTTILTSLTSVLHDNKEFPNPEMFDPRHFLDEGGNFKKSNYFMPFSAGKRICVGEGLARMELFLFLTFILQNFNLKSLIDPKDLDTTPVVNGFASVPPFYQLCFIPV

Clc1ccc2c(NCC3CCCN4CCCCC34)ccnc2c1 (racemic) [(±)-AM1, 7-chloro-4-(N-lupinyl)aminoquinoline]
Ki [1]: 500 to 800 nM
P. berghei ED50 (95% CI) [2]: 2.77 (1.26–4.29) mg/kg
P. berghei ED90 (95% CI) [2]: 12.58 (7.69–17.46) mg/kg
IC50 [3]: 29.7 nM
potency against P. vivax field isolates relative to CQ ([3]; 10 field isolates, times higher than CQ): about 3 times
IC50 [4]: 16.1 nM
IC50 [5]: 35.4 nM
MRT last [6, 14]: 3.27 h
Tmax [6, 14]: 0.5 h
AUC last ([6]; CD-1 mice, 10 mg/kg oral, single dose in SSV, plasma, 10 mg/kg): 19.5 min·µM and 6421 min·ng/mL

Clc1ccc2c(NC[C@H]3CCCN4CCCC[C@@H]34)ccnc2c1 [(+)-AM1, 7-chloro-N-(((1R,9aS)-octahydro-1H-quinolizin-1-yl)methyl)quinolin-4-amine]
inhibition at 3 µM [7]: 11.1 ± 0.5%
P. berghei ED90 (95% CI) [2]: 2.03 (1.46–2.60) mg/kg
ED50 ([2]; Plasmodium berghei, 96 h, read-out: P. berghei ED50 (95% CI)): 1.6 mg/kg
inhibition at 3 µM [8]: 14.3 ± 1.9%
inhibition at 3 µM [9]: 62.2 ± 1%
IC50 [4]: 17.5 nM
IC50 [5]: 35.8 nM
inhibition at 3 µM [10]: 9 ± 1.1%
inhibition at 3 µM [11]: 8.3 ± 0.8%
AUC(0-t) [6, 15]: 0.382 µM·h and 126 ng·h/mL
Cmax [6, 15]: 108 nM and 35.5 ng/mL
MRT last [6, 15]: 2.7 h
Tmax [6, 15]: 2 h

Clc1ccc2c(NCC3CCCN4CCCCC34)ccnc2c1 (centres unmarked) [AM1, 7-chloro-4-(N-lupinyl)aminoquinoline]
IC50 [3]: 29 nM
IC50 [12]: 16 to 53 nM
LogD7.4 [13]: 2.26

Source: paper PMC6149971, “In Vivo and In Vitro Activities and ADME-Tox Profile of a Quinolizidine-Modified 4-Aminoquinoline: A Potent Anti-P. falciparum and Anti-P. vivax Blood-Stage Antimalarial” (Molecules : A Journal of Synthetic Chemistry and Natural …, 2017)
